Assay results reported in publication PMC6274350, “Design, Synthesis, and Cytotoxicity of 5-Fluoro-2-methyl-6-(4-aryl-piperazin-1-yl) Benzoxazoles” (Molecules, 2016).

Key:
[1] = Visible solubility / precipitation of test compounds in cell-culture media; format: physicochemical; conditions: for Solubility at test concentrations: cell-culture media, 0.1-500 µM; for Precipitation in cell-culture media: 50 µM, no conclusion on cytotoxicity possible
Protocol: Since the majority of test compound solutions with concentrations above 50 µM precipitated in cell-culture media, we performed cytotoxicity assays for healthy and cancer cells at 50 µM.

[2] = tested on: A-549 lung carcinoma cells; experiment: CellTiter-Glo luminescent cell viability (cytotoxicity) assay on lung cancer cells; format: cell-based, human; conditions: for viability at 0.1 µM / viability at 1 µM / viability at 10 µM / viability at 50 µM / viability at 100 µM / viability at 250 µM / viability at 500 µM: Homo sapiens, A549, Lung cancer cells (A-549), 24 h, vs DMSO vehicle
Protocol: (§1) The cytotoxicity of prepared benzoxazoles (7a–j) and intermediates (6a–j and 9) were measured by applying the CellTiter-Glo® luminescent cell proliferation assay (G755A, Promega, Madison, WI, USA). This method permits the determination of viable cells numbers in the culture based on quantitation of the ATP present, which denotes the presence of metabolically active cells. In vitro cytotoxicity analysis was overall performed following the protocol as described in “Guidance Document on Using in Vitro Data to Estimate in Vivo Starting Doses for Acute Toxicity Based on Recommendations” [18]. Human A-549 cells are human lung cancer epithelial cells, which were chosen as the tumor model, whereas the HepaRG™ cell line is a classic hepatic cell line that retains many characteristics of primary human hepatocytes. HepaRG™ cells are terminally differentiated.
(§2) Human cell cultures: Hepatocytes (HepaRG^TM cells) were obtained from Life Technologies, and were cultivated in William’s E Medium (Gibco, Life Technologies, Waltham, MA, USA) and supplemented with 1x GlutaMAX™ plus 1x HepaRG^TM General Purpose Medium Supplement in 25-cm^2 or 75-cm^2 flasks (TPP, Trasadingen, Switzerland) at 37 °C and 5% CO2. Lung cancer epithelial cells A-549 were propagated in Epilife Medium (Gibco, Life Technologies; MEPICF) and combined with CaCl2 and 1x-growth-supplement containing penicillin and streptomycin (Gibco, Life Technologies). For sub-culturing, cells were split at a ratio of 1:4 to 1:8. For cryopreservation, cells were frozen in 10% DMSO in liquid nitrogen.
(§3) Human cytotoxicity assay: Human hepatocytes or human lung carcinoma cells were seeded into sterile black clear-bottomed polystyrene Corning® CellBind® 96-well plates (Munich, Germany) at a density of 20,000 cells/well after calculating cell numbers from trypsinized samples in a classical Neubauer Improved hemocytometer (VWR, Munich, Germany). The cells were grown for 24 h at 37 °C in a 5% CO2 atmosphere in Epilife medium (keratinocytes) or William′s E medium (hepatocytes). After a 24-h recovery period, media were removed from the wells by aspiration. The cells were then immediately exposed to the respective test compounds or reference antibiotics (prepared in advance in 100 µL of the same media) for 24 h 37 °C with 5% CO2. The concentration tested ranged from 0.1 µM to 500 µM (0.1 µM, 1 µM, 10 µM, 50 µM, 100 µM, 250 µM, and 500 µM) and was formulated as a 100× concentrated stock each, resulting in a final constant DMSO concentration of 1% per 100-µL sample volume. Test series were each performed in triplicate, and additionally included a vehicle reference (DMSO only) plus another internal control for evaluating overall assay performance. Additionally, cells were visually examined under a light microscope for any morphological abnormalities relative to the untreated cells. Subsequently, cell viability, as an indicator of potential cytotoxicity, was measured by applying the CellTiter-Glo® luminescent cell proliferation assay (G755A, Promega, Madison, WI, USA). This method permits the determination of the number of viable cells in culture based on quantitation of the ATP present, which denotes the presence of metabolically active cells. To this end, 100 µL (equal to the volume of culture medium) of the kit-provided CellTiter-Glo® reagent (reconstituted by transferring the thawed CellTiter-Glo® buffer to the lyophilized enzyme and substrate mixture) was directly added to each well with a repetitive dispensing pipette. The contents were then mixed for 2 min at room temperature on an orbital minishaker (IKA® MS3 digital, Staufen, Germany) at 450 rpm to induce efficient cell lysis, and then further incubated for 10 min at room temperature for stabilization of the resultant luminescent signal. […]

[3] = tested on: HepaRG cells (liver cells, hepatocytes); experiment: CellTiter-Glo luminescent cell viability (cytotoxicity) assay on hepatocytes; format: cell-based, human; conditions: for Toxicity to healthy cells versus lung cancer cells: 50 µM, HepaRG vs A-549
Protocol: as §1, §2, §3

[4] = as above; format: cell-based, human; conditions: human, Liver cells, hepatocytes (HepaRG), 24 h, vs DMSO vehicle
Protocol: as §1, §2, §3

melting point	Compound	viability at 0.1 µM [2]	viability at 1 µM [2]	viability at 10 µM [2]	viability at 50 µM [2]	viability at 100 µM [2]	viability at 250 µM [2]	viability at 24 h, 0.1 µM [4]	viability at 24 h, 1 µM [4]	viability at 24 h, 10 µM [4]	viability at 24 h, 50 µM [4]	viability at 24 h, 100 µM [4]	viability at 24 h, 250 µM [4]	viability at 24 h, 500 µM [4]	Precipitation in cell-culture media [1]	other results
151 to 152 °C	O=[N+]([O-])c1cc(F)c(N2CCN(c3ccc(F)cc3)CC2)cc1O [Compound 6d, 4-Fluoro-5-[4-(4-fluoro-phenyl)-piperazin-1-yl]-2-nitro-phenol]	103%	111%	78%	58%	54%	46%	94%	87%	101%	57%	62%	44%	13%	–	Solubility at test concentrations [1]: completely soluble at all concentrations; CT50 ([2]; A-549 lung cancer cells, equal toxicity to both cell lines): ~ 50 µM; viability at 500 µM [2]: 34%; CT50 ([3]; hepatocytes (HepaRG), equal toxicity to both cell lines): ~ 50 µM
168 to 170 °C	Cc1ccc(N2CCN(c3cc4oc(C)nc4cc3F)CC2)cc1 [Compound 7b, 5-Fluoro-2-methyl-6-(4-p-tolyl-piperazin-1-yl)-benzooxazole]	92%	94%	92%	87%	75%	–	105%	99%	91%	63%	60%	–	–	–	Toxicity to healthy cells versus lung cancer cells [3]: more toxic to healthy cells compared with lung cancer cells
172 to 173 °C	Cc1nc2cc(F)c(N3CCN(c4ccccc4O)CC3)cc2o1 [Compound 7f, 2-[4-(5-Fluoro-2-methyl-benzooxazol-6-yl)-piperazin-1-yl]-phenol]	103%	99%	91%	91%	95%	83%	106%	97%	86%	59%	60%	53%	54%	–	Solubility at test concentrations [1]: completely soluble at all concentrations; viability at 500 µM [2]: 63%
157 to 158 °C	Cc1nc2cc(F)c(N3CCN(c4ccccc4F)CC3)cc2o1 [Compound 7g, 5-Fluoro-6-(4-(2-fluorophenyl)-piperazin-1-yl)-2-methylbenzo[d]oxazole]	96%	92%	92%	73%	63%	–	96%	106%	87%	–	–	–	–	precipitation problem	–
211 to 213 °C	Cc1nc2cc(F)c(N3CCN(c4cccc(O)c4)CC3)cc2o1 [Compound 7h, 3-[4-(5-Fluoro-2-methyl-benzooxazol-6-yl)-piperazin-1-yl]-phenol]	100%	93%	97%	95%	90%	–	100%	102%	99%	–	–	–	–	precipitation problem	–
124 to 125 °C	COc1cccc(N2CCN(c3cc4oc(C)nc4cc3F)CC2)c1 [Compound 7i, 5-Fluoro-6-[4-(3-methoxy-phenyl)-piperazin-1-yl]-2-methyl-benzooxazole]	105%	102%	88%	76%	75%	–	100%	102%	91%	–	–	–	–	precipitation problem	–
147 to 148 °C	Cc1nc2cc(F)c(N3CCN(c4ccc(Cl)c(Cl)c4)CC3)cc2o1 [Compound 7j, 6-[4-(3,4-Dichloro-phenyl)-piperazin-1-yl]-5-fluoro-2-methyl-benzooxazole]	98%	94%	81%	70%	47%	28%	100%	90%	85%	65%	27%	7%	7%	precipitation problem	Toxicity to healthy cells versus lung cancer cells [3]: more toxic to healthy cells compared with lung cancer cells
–	COc1cccc2c1C(=O)c1c(O)c3c(c(O)c1C2=O)C[C@@](O)(C(=O)CO)C[C@@H]3O[C@H]1C[C@H](N)[C@H](O)[C@H](C)O1 [doxorubicine, reference compound]	–	–	–	–	–	–	–	–	–	–	–	–	–	–	IC50 ([3]; Homo sapiens, HepaRG cells, standard): 5.1 µM
